Experimental data: US10479854B2, “Conjugate for treating malaria” (priority 2014, dated 2019)

Test system: chloroquine-resistant Plasmodium falciparum strain (D10R)
Assay: In vitro anti-malaria assay (Malstat, lactate dehydrogenase)
Type: cell-based
Details: read-out: IC50(chloroquine)
Method: In separate experiments, tyrocidine/tryptocidines conjugated to polymers 11 and 12, respectively, were administered at varying concentrations to blood samples containing cells infected with a chloroquine-resistant Plasmodium falciparum strain (D10 resistant mutant denoted D10R, IC50(chloroquine)>100 nM). For comparison purposes, the unconjugated/unmodified natural tyrocidine/tryptocidine mixture was also administered to blood infected with the same chloroquin-resistant malaria strain. FIGS. 16 and 17 show the antimalaria activity and the haemolytic activity of the tyrocidine/tryptocidine-PVP conjugates in comparison with the natural cyclodecapetide mixture. […]
P. falciparum (D10 strain) was cultured and dose-response assays were performed as previously described.^9 Briefly, parasites were cultured under an atmosphere of 3% CO2, 4% O2 and 93% N2 in RPMI-1640 media, supplemented with 25 mM HEPES, 50 mM glucose, 0.65 mM hypoxanthine, 0.048 mg/mL gentamicin, 0.2% (w/v) NaHCO3, 0.5% (w/v) Albumax II and 2% fresh human O^+ erythrocytes obtained from anonymous donors from the Western Cape Blood Blank. […] A 10 μL aliquot from each well was diluted to 100 μL with phosphate buffered saline and analysed at 405 nm, on a plate reader, to determine the quantity of released haemoglobin and haemolytic activity of the conjugates. […]

**Q.** With `CCN(CC)CCCC(C)Nc1ccnc2cc(Cl)ccc12` (stereo not shown) [chloroquine] as the compound, how does the IC50 read?
**A.** The IC50 was > 100 nM.
